From patent US20080279769A1, “Enzyme Inhibitor Imaging Agents” (priority 2004, published 2008)
Blank lines part the entries; values can stand above or below the compound they belong to.

Assays:
[1] = biological target: MMP-12 (Homo sapiens, UniProt P39900); experiment: In vitro metalloproteinase inhibition assay (Biomol MMP-12 colorimetric assay kit); format: biochemical
Procedure: (§1) Compounds were screened using the following commercially available Biomol assay kits:
(§2) MMP-2 colorimetric assay kit-Catalogue number AK-408, MMP-9 colorimetric assay kit-Catalogue number AK-410, MMP-12 colorimetric assay kit-Catalogue number AK-402, Which are available from Affiniti Research Products Ltd. (Palatine House, Matford Court, Exeter, EX2 8NL, UK).
(§3) Inhibitors were provided in powdered form, and stored at 4° C. For each inhibitor a 1 mM stock solution in DMSO was prepared, dispensed into 20 μl aliquots and these aliquots stored at −20° C. The stock solution was diluted to give 8 inhibitor concentrations (recommended: 50 μM, 5 μM, 500 mM, 50 mM, 5 nM, 500 μM, 50 μM and 5 μM). Dilutions were made in the kit assay buffer. A five-fold dilution of the inhibitor stocks is made on addition to the assay wells, therefore final concentration range was from 10 μM to 1 pM.
(§4) Details are provided with the commercial kit, but can be summarised as follows: • Prepare test compound dilutions as above, • Add assay buffer to plate, • Add test compounds to plate • Prepare standard kit inhibitor NNGH (see kit for dilution factor) • Add NNGH to control inhibitor wells • Prepare MMP enzyme (see kit for dilution factor) • Add MMP to plate • Incubate plate at 37° C. for ˜15 min • Prepare thiopeptolide substrate (see kit for dilution factor) • Add substrate to plate • Count every 2 min for 1 hr, 37° C., 414 nm on a Labsystems iEMS plate reader.

[2] = biological target: MMP-2 (Homo sapiens, UniProt P08253); experiment: In vitro metalloproteinase inhibition assay (Biomol MMP-2 colorimetric assay kit); format: biochemical
Chain of MMP-2 (P08253 110-446 limits assumed): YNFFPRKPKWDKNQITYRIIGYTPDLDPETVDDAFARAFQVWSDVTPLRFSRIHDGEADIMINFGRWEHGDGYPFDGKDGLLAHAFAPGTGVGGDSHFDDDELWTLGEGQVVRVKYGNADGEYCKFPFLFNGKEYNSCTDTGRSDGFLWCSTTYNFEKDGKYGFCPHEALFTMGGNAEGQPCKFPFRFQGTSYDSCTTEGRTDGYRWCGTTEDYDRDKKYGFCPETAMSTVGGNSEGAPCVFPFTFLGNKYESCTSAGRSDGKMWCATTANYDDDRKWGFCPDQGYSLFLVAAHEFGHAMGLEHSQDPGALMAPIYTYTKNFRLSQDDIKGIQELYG
Procedure: as §1
as §3, with “The stock solution was diluted to give 8 inhibitor concentrations (recommended: 50 μM, 5 μM, 500 mM, 50 mM, 5 nM, 500 μM, 50 μM and 5 μM).” left out

[3] = biological target: T1, MMP-1 (Homo sapiens, UniProt P03956); experiment: In vitro metalloproteinase inhibition assay (colorimetric, thiopeptolide substrate), MMP-1; format: biochemical
T1 sequence (P03956 100-469): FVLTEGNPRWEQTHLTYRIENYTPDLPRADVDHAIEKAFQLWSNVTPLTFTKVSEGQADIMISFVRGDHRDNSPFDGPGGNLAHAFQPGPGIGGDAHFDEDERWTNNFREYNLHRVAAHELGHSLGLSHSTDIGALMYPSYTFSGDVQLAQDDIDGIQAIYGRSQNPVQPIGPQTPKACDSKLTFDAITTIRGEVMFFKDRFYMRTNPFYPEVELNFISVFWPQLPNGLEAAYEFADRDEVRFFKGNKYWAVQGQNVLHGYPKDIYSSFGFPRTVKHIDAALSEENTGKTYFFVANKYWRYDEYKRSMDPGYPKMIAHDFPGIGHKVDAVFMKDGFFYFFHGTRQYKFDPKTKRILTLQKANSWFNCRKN
Procedure: [The source words this procedure for another target and reports this target under the same test.] as §1, §2, §3, §4

[4] = biological target: MMP-9 (Homo sapiens, UniProt P14780); experiment: In vitro metalloproteinase inhibition assay (Biomol MMP-9 colorimetric assay kit); format: biochemical
Chain of MMP-9 (P14780 107-444 limits assumed): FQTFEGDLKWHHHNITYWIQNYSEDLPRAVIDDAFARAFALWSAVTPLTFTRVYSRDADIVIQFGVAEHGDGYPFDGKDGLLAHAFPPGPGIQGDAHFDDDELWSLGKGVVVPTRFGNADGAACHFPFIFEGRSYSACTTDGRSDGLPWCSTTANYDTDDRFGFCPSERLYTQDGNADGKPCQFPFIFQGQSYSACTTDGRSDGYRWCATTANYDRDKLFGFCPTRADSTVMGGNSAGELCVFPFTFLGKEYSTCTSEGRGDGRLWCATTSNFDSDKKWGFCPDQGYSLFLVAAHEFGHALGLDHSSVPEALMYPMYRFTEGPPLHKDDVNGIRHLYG
Procedure: as §1
as §3, with “The stock solution was diluted to give 8 inhibitor concentrations (recommended: 50 μM, 5 μM, 500 mM, 50 mM, 5 nM, 500 μM, 50 μM and 5 μM).” left out

[5] = system: ApoE ligation model; experiment: Biodistribution in ApoE ligated animal model of MMP expression; format: in vivo, mice; settings: for Carotid: Blood / Carotid: Heart: ratio
Description: The ApoE ligation model was also studied. ApoE mice are transgenic knock-out mice, which lack the ApoE gene, and are therefore unable to regulate their plasma cholesterol levels. As a consequence ApoE mice develop atherosclerotic lesions, a process which is accelerated with feeding of high fat diet. Further acceleration of lesion development can be achieved by ligating the carotid artery, resulting in advanced lesion formation within 4 weeks of surgery and high fat diet feeding. […] 105, 2686-2691 (2002)].

[6] = biological target: MMP-8 (Homo sapiens, UniProt P22894); experiment: In vitro metalloproteinase inhibition assay (colorimetric, thiopeptolide substrate), MMP-8; format: biochemical
Chain of MMP-8 (P22894 101-467): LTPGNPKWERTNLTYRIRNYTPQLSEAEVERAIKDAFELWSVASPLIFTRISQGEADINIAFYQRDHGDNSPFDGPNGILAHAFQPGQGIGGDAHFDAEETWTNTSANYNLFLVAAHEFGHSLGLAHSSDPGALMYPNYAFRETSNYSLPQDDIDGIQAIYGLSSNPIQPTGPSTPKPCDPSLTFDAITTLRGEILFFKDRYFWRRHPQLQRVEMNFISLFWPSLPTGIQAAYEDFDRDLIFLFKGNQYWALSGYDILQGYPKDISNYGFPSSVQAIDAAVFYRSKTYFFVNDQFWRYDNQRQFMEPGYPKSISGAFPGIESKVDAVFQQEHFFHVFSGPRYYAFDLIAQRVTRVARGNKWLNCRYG
Procedure: [The source words this procedure for another target and reports this target under the same test.] as §1, §2
as §3, with “A five-fold dilution of the inhibitor stocks is made on addition to the assay wells, therefore final concentration range was from 10 μM to 1 pM.” left out
as §4

[7] = system: Lewis Lung [LLC] Carcinoma Tumour model; experiment: Biodistribution in animal tumour model of MMP expression; format: in vivo; settings: for % ID/g Tumour: 15 days tumour growth
Description: The in vivo Lewis Lung [LLC] Carcinoma Tumour model has been used for screening of MMP is due to reproducible up-regulation of several MMPs in the tumour. As such, this model provides a good assessment of the efficacy of the MMP is for in vivo targeting of lesions that express MMPs. Literature reports have shown that LLC cells express pro and active MMP-2 and pro NMP-9 and LLC tumours MMP-2 and MMP-9 (not classified as pro or active) [Bae et al Drugs Exp Clin Res. 29(1):15-23 (2003)].

[8] = between 5 and 120 minutes post injection

Chain of MMP-12 (P39900 106-263 limits assumed): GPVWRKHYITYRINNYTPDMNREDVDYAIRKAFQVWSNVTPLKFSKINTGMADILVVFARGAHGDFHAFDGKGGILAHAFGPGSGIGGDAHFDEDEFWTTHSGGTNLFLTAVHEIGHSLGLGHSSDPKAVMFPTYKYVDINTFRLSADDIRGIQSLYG

Compound: CNC(=O)C(CCC(=O)NCCOCCOCCOCCOCCOCCOCCOCCOCCOCCOCCOCCOCCC(=O)NCc1ccc(I)cc1)NC(=O)CC(CC(C)C)C(=O)NO (stereo not shown) [Compound 10]
Ki [1]: 4.7 nM
Ki [2]: 8.8 ± 3.1 nM
Ki [3]: 23.9 nM
Ki [4]: 2.85 ± 3.5 nM

Compound: CC(C)C[C@H](CC(=O)N[C@@H](Cc1c[nH]c2ccccc12)C(=O)NCc1ccc([123I])cc1)C(=O)NO [Compound 6A]
% ID/g Blood ([5]; 5 min post injection): 9.9 % ID/g
% ID/g Carotid ([5]; 5 min post injection): 3.9 % ID/g
% ID/g Heart ([5]; 5 min post injection): 9.8 % ID/g
% ID/g Blood ([5]; 60 min post injection): 3.2 % ID/g
% ID/g Carotid ([5]; 60 min post injection): 1.4 % ID/g
% ID/g Heart ([5]; 60 min post injection): 2.2 % ID/g
% Retained Carotid ([5]; 60 min post injection): 36%
% ID/g Blood ([5]; 120 min post injection): 2.5 % ID/g
% ID/g Carotid ([5]; 120 min post injection): 1.4 % ID/g
% ID/g Heart ([5]; 120 min post injection): 1.5 % ID/g
% Retained Carotid ([5]; 120 min post injection): 37%
Carotid: Blood ([5]; 5 min post injection): 0.3
Carotid: Heart ([5]; 5 min post injection): 0.4
Carotid: Blood ([5]; 60 min post injection): 0.6
Carotid: Heart ([5]; 60 min post injection): 0.7
Carotid: Blood ([5]; 120 min post injection): 0.6
Carotid: Heart ([5]; 120 min post injection): 1.0

Compound: CC(C)C[C@H](CC(=O)N[C@@H](C)C(=O)NCc1ccc([123I])cc1)C(=O)NO [Compound 18A]
% ID/g Blood ([5]; 5 min post injection): 7.3 % ID/g
% ID/g Carotid ([5]; 5 min post injection): 2.9 % ID/g
% ID/g Heart ([5]; 5 min post injection): 10.1 % ID/g
% ID/g Blood ([5]; 120 min post injection): 2.4 % ID/g
% ID/g Carotid ([5]; 120 min post injection): 1.0 % ID/g
% ID/g Heart ([5]; 120 min post injection): 2.6 % ID/g
% Retained Carotid ([5]; 120 min post injection): 34%
% ID/g Blood ([5]; 360 min post injection): 1.2 % ID/g
% ID/g Carotid ([5]; 360 min post injection): 0.8 % ID/g
% ID/g Heart ([5]; 360 min post injection): 1.0 % ID/g
% Retained Carotid ([5]; 360 min post injection): 26%
Carotid: Blood ([5]; 5 min post injection): 0.5
Carotid: Heart ([5]; 5 min post injection): 0.3
Carotid: Blood ([5]; 120 min post injection): 0.4
Carotid: Heart ([5]; 120 min post injection): 0.4
Carotid: Blood ([5]; 360 min post injection): 0.7
Carotid: Heart ([5]; 360 min post injection): 0.8

Compound: CNC(=O)[C@H](Cc1ccc(I)cc1)NC(=O)[C@@H](CC(=O)NO)CC(C)C [Compound 3]
Ki [1]: 0.4 ± 0.04 nM
Ki [2]: 0.2 ± 0.11 nM
Ki [3]: 1.77 nM
Ki [4]: 0.11 ± 0.08 nM

Compound: CC(C)C[C@H](CC(=O)NO)C(=O)N[C@@H](Cc1c[nH]c2ccccc12)C(=O)NCc1ccc(I)cc1 [Compound 7]
Ki [3]: 1.57 ± 2.37 nM

Compound: CNC(=O)[C@H](Cc1ccc([123I])cc1)NC(=O)C[C@@H](CC(C)C)C(=O)NO [Compound 2A]
% ID/g Blood ([5]; 5 min post injection): 6.5 % ID/g
% ID/g Carotid ([5]; 5 min post injection): 3.3 % ID/g
% ID/g Heart ([5]; 5 min post injection): 5.5 % ID/g
% ID/g Blood ([5]; 120 min post injection): 1.5 % ID/g
% ID/g Carotid ([5]; 120 min post injection): 2.7 % ID/g
% ID/g Heart ([5]; 120 min post injection): 3.6 % ID/g
% Retained Carotid ([5]; 120 min post injection): 83%
% ID/g Blood ([5]; 360 min post injection): 1.6 % ID/g
% ID/g Carotid ([5]; 360 min post injection): 1.6 % ID/g
% ID/g Heart ([5]; 360 min post injection): 1.5 % ID/g
% Retained Carotid ([5]; 360 min post injection): 47%
carotid uptake and retention [5, 8]: exhibited carotid uptake and retention
carotid to blood ratios ([5]; mouse, in vivo): good
clearance from normal tissues [e.g. blood and other background tissues] ([5]; mouse, in vivo): significant
Carotid: Blood ([5]; 5 min post injection): 0.5
Carotid: Heart ([5]; 5 min post injection): 0.8
Carotid: Blood ([5]; 120 min post injection): 1.8
Carotid: Heart ([5]; 120 min post injection): 0.8
Carotid: Blood ([5]; 360 min post injection): 1.0
Carotid: Heart ([5]; 360 min post injection): 1.0
% ID GI Excretion ([7]; 5 min post injection): 17.81 % ID
% ID Heart ([7]; 5 min post injection): 0.86 % ID
% ID Liver ([7]; 5 min post injection): 29.76 % ID
% ID Lung ([7]; 5 min post injection): 1.38 % ID
% ID Urinary Excretion ([7]; 5 min post injection): 19.85 % ID
% ID/g Blood ([7]; 5 min post injection): 5.89 % ID/g
% ID/g Tumour ([7]; 5 min post injection): 1.39 % ID/g
% ID GI Excretion ([7]; 30 min post injection): 28.46 % ID
% ID Heart ([7]; 30 min post injection): 0.57 % ID
% ID Liver ([7]; 30 min post injection): 24.43 % ID
% ID Lung ([7]; 30 min post injection): 0.73 % ID
% ID Urinary Excretion ([7]; 30 min post injection): 22.52 % ID
% ID/g Blood ([7]; 30 min post injection): 2.19 % ID/g
% Retained Tumour ([7]; 30 min post injection): 78%
% ID/g Tumour ([7]; 30 min post injection): 1.08 % ID/g
% ID GI Excretion ([7]; 60 min post injection): 29.5 % ID
% ID Heart ([7]; 60 min post injection): 0.56 % ID
% ID Liver ([7]; 60 min post injection): 20.04 % ID
% ID Lung ([7]; 60 min post injection): 0.59 % ID
% ID Urinary Excretion ([7]; 60 min post injection): 27.7 % ID
% ID/g Blood ([7]; 60 min post injection): 1.49 % ID/g
% Retained Tumour ([7]; 60 min post injection): 87%
% ID/g Tumour ([7]; 60 min post injection): 1.21 % ID/g
% ID GI Excretion ([7]; 120 min post injection): 34.42 % ID
% ID Heart ([7]; 120 min post injection): 0.49 % ID
% ID Liver ([7]; 120 min post injection): 13.45 % ID
% ID Lung ([7]; 120 min post injection): 0.45 % ID
% ID Urinary Excretion ([7]; 120 min post injection): 31.03 % ID
% ID/g Blood ([7]; 120 min post injection): 1.38 % ID/g
% Retained Tumour ([7]; 120 min post injection): 97%
% ID/g Tumour ([7]; 120 min post injection): 1.35 % ID/g
clearance from normal tissues [e.g. blood and other background tissues] ([7]; between 5 and 120 minutes p.i.): occurred between 5 and 120 minutes p.i.
tumour uptake and retention [7, 8]: exhibited tumour uptake and retention

Next, values leading:

Ki [1]: 8.3 nM
Ki [2]: 21 ± 2.2 nM
Ki [3]: 28.5 nM
Ki [4]: 7.15 ± 3.32 nM
Compound: CNC(=O)C(CCC(=O)NCCOCCOCCOCCOCCOCCOCCOCCOCCOCCOCCOCCOCCC(=O)NCc1ccc(I)cc1)NC(=O)C(CC(=O)NO)CC(C)C (stereo not shown) [Compound 12]

Ki [1]: 0.51 nM
Ki [6]: 0.082 nM
Ki [2]: 0.21 ± 0.05 nM
Ki [3]: 2.68 ± 0.19 nM
Ki [4]: 0.04 ± 0.03 nM
Compound: CC(C)CC(CC(=O)NC(Cc1c[nH]c2ccccc12)C(=O)NCCOCCOCCOCCOCCOCCOCCOCCOCCOCCOCCOCCOCCC(=O)NCc1ccc(I)cc1)C(=O)NO (stereo not shown) [Compound 14]

Ki [1]: 0.4 ± 0.09 nM
Ki [2]: 0.61 ± 0.16 nM
Ki [3]: 18 ± 1.69 nM
Ki [4]: 0.5 ± 0.42 nM
Compound: CC(C)CC(CC(=O)NO)C(=O)NC(Cc1c[nH]c2ccccc12)C(=O)NCCOCCOCCOCCOCCOCCOCCOCCOCCOCCOCCOCCOCCC(=O)NCc1ccc(I)cc1 (stereo not shown) [Compound 16]
